The values that follow are results of earlier work, collected in patent US20020177579A1, “Extended release formulation of water-soluble drugs” (priority 2000, published 2002).

For orientation: Solubility means the concentration that dissolves in the medium under given conditions.

Counter-ions that a name gives are not always drawn.

For data set [1] the following is noted: for Fraction Absorbed: in vivo.

On to `CCOC(=O)[C@H](CCc1ccccc1)N[C@H]1CCc2ccccc2N(CC(=O)O)C1=O.Cl` [Benazepril HCI], for which the Solubility is listed as above 100 mg/mL. Further, the “Fraction Absorbed” value in data set [1] is recorded as 37%.

As for `COc1ccc([C@@H]2Sc3ccccc3N(CCN(C)C)C(=O)[C@@H]2OC(C)=O)cc1` [Diltiazem hydrochloride, 1,5-benzothiazepin-4 (5H) one, 3-(acetyloxy)-5-[2-(dimethylamino)ethyl]-2,3-dihydro-2-(4-methoxyphenyl)-, monohydrochloride, (+)-cis-4], the “solubility in 100% ethanol” value (100% ethanol) is “slightly soluble”. Also, where the note is “benzene”, the solubility in benzene entry is “not soluble”. For the same compound, for the setting “chloroform”, the solubility in chloroform entry is reported as “freely soluble”. Besides, the solubility in methanol result (methanol) is recorded as “freely soluble”. Further, the solubility in water entry (water) was “freely soluble”. The absolute bioavailability entry in data set [1] (compared to intravenous administration) is given as “about 40%”.

In the case of `CCC(=O)O[C@@H](O[P@](=O)(CCCCc1ccccc1)CC(=O)N1C[C@H](C2CCCCC2)C[C@H]1C(=O)O)C(C)C` [Fosinopril Sodium], the Solubility is reported as 100 mg/mL. The “Fraction Absorbed” value in data set [1] was 36%.

Turning to `CN1C2CCCC1CC(NC(=O)c1nn(C)c3ccccc13)C2` (centres unmarked) [Granisetron HCI], the “Solubility (in words)” value is ““Readily”. In data set [1], the “Fraction Absorbed” value is “˜90%”.

Take `COCCc1ccc(OCC(O)CNC(C)C)cc1` (centres unmarked) [Metoprolol Succinate]: the “Solubility (in words)” value is given as ““Freely”.

Regarding `CCOC(=O)[C@H](CCc1ccccc1)N[C@@H](C)C(=O)N1Cc2ccccc2C[C@H]1C(=O)O` [Quinapril HCI], the “Solubility (in words)” value is listed as ““Freely”. The “Fraction Absorbed” value in data set [1] is 60%.

On to `CNS(=O)(=O)Cc1ccc2[nH]cc(CCN(C)C)c2c1` [Sumatriptan Succinate], for which the “Solubility (in words)” value is ““Readily”. In addition, in data set [1], the “Fraction Absorbed” value is reported as 15%.
